These results are taken from ChEMBL document CHEMBL3045802, “Synthesis and in vitro antitumor activity of new quinoline, pyrimido[4,5-b]quinoline, [1,2,3]triazino[4,5-b]quinoline, and [1,2,4]triazolo[2,3:3,4]pyrimido[6,5-b]quinoline analogs” (2013).

Holding throughout (assay type): functional
The test system of one test is Malme-3M. In words: Cytotoxicity against Homo sapiens (human) MALME-3M cells assessed as growth inhibition at 10 uM after 48 hr by coulter counter analysis. Conditions: read-out: GI.
In the next test the test system is LOX IMVI. The test is described as follows: Cytotoxicity against Homo sapiens (human) LOXIMVI cells assessed as growth inhibition at 10 uM after 48 hr by coulter counter analysis. Conditions: read-out: GI.
For a further test, the system named is SNB-75. The test is described as follows: Cytotoxicity against Homo sapiens (human) SNB75 cells assessed as growth inhibition at 10 uM after 48 hr by coulter counter analysis. Conditions: SNB-75, 48 h, read-out: GI.
For a further test, the system named is SK-MEL-5. The test is described as follows: Cytotoxicity against Homo sapiens (human) SK-MEL-5 cells assessed as growth inhibition at 10 uM after 48 hr by coulter counter analysis. Conditions: SK-MEL-5, 48 h, read-out: GI.
Another test deals with MDA-MB-468. In words: Cytotoxicity against Homo sapiens (human) MDA-MB-468 cells assessed as growth inhibition at 10 uM after 48 hr by coulter counter analysis. Conditions: MDA-MB-468, 48 h, read-out: GI.
The next test has as its system BT-549. In words: Cytotoxicity against Homo sapiens (human) BT549 cells assessed as growth inhibition at 10 uM after 48 hr by coulter counter analysis. Conditions: BT-549, 48 h, read-out: GI.
Another test relates to Hs-578T. In words: Cytotoxicity against Homo sapiens (human) Hs578T cells assessed as growth inhibition at 10 uM after 48 hr by coulter counter analysis. Conditions: read-out: GI.
Another test concerns MDA-MB-231. In words: Cytotoxicity against Homo sapiens (human) MDA-MB-231 cells assessed as growth inhibition at 10 uM after 48 hr by coulter counter analysis. Conditions: MDA-MB-231, 48 h, read-out: GI.
Another test relates to DU-145. In words: Cytotoxicity against Homo sapiens (human) DU145 cells assessed as growth inhibition at 10 uM after 48 hr by coulter counter analysis. Conditions: DU-145, 48 h, read-out: GI.
The subject of a further test is TK-10. The test is described as follows: Cytotoxicity against Homo sapiens (human) TK10 cells assessed as growth inhibition at 10 uM after 48 hr by coulter counter analysis. Conditions: TK-10, 48 h, read-out: GI.
The next test relates to SN12C. In words: Cytotoxicity against Homo sapiens (human) SN12C cells assessed as growth inhibition at 10 uM after 48 hr by coulter counter analysis. Conditions: read-out: GI.
A further test has as its system ACHN. In words: Cytotoxicity against Homo sapiens (human) ACHN cells assessed as growth inhibition at 10 uM after 48 hr by coulter counter analysis. Conditions: read-out: GI.
The subject of a further test is SK-OV-3. In words: Cytotoxicity against Homo sapiens (human) SKOV3 cells assessed as growth inhibition at 10 uM after 48 hr by coulter counter analysis. Conditions: SK-OV-3, 48 h, read-out: GI.
A further test has as its system CCRF-CEM. The test is described as follows: Cytotoxicity against Homo sapiens (human) CCRF-CEM cells assessed as growth inhibition at 10 uM after 48 hr by coulter counter analysis. Conditions: read-out: GI.
The next test concerns KM12. In words: Cytotoxicity against Homo sapiens (human) KM12 cells assessed as growth inhibition at 10 uM after 48 hr by coulter counter analysis. Conditions: KM12, 48 h, read-out: GI.
A further test has as its system SW-620. In words: Cytotoxicity against Homo sapiens (human) SW620 cells assessed as growth inhibition at 10 uM after 48 hr by coulter counter analysis. Conditions: SW-620, 48 h, read-out: GI.
In another test the test system is HCT-116. The test is described as follows: Cytotoxicity against Homo sapiens (human) HCT116 cells assessed as growth inhibition at 10 uM after 48 hr by coulter counter analysis. Conditions: HCT-116, 48 h, read-out: GI.
Another test deals with NCI-H522. The test is described as follows: Cytotoxicity against Homo sapiens (human) NCI-H522 cells assessed as growth inhibition at 10 uM after 48 hr by coulter counter analysis. Conditions: NCI-H522, 48 h, read-out: GI.
The subject of the next test is NCI-H460. In words: Cytotoxicity against Homo sapiens (human) NCI-H460 cells assessed as growth inhibition at 10 uM after 48 hr by coulter counter analysis. Conditions: NCI-H460, 48 h, read-out: GI.
For another test, the system named is NCI-H23. The test is described as follows: Cytotoxicity against Homo sapiens (human) NCI-H23 cells assessed as growth inhibition at 10 uM after 48 hr by coulter counter analysis. Conditions: NCI-H23, 48 h, read-out: GI.
The subject of the next test is EKVX. In words: Cytotoxicity against Homo sapiens (human) EKVX cells assessed as growth inhibition at 10 uM after 48 hr by coulter counter analysis. Conditions: read-out: GI.
A further test deals with A549. The test is described as follows: Cytotoxicity against Homo sapiens (human) A549 cells assessed as growth inhibition at 10 uM after 48 hr by coulter counter analysis. Conditions: A549, 48 h, read-out: GI.
In a further test the test system is MOLT-4. In words: Cytotoxicity against Homo sapiens (human) MOLT4 cells assessed as growth inhibition at 10 uM after 48 hr by coulter counter analysis. Conditions: MOLT-4, 48 h, read-out: GI.
The subject of another test is K562. In words: Cytotoxicity against Homo sapiens (human) K562 cells assessed as growth inhibition at 10 uM after 48 hr by coulter counter analysis. Conditions: K562, 48 h, read-out: GI.

Turning to `O=c1[nH]nnc2c1C(c1ccc(Cl)cc1)C1=C(CCCC1)N2` (stereo not given), the inhibition of growth at 10 µM in the test on Malme-3M was less than 10%; in the test with LOX IMVI, less than 10%; with SNB-75 it was less than 10%; in the test with SK-MEL-5, 13%; in the test on MDA-MB-468, 13.3%; in the test on BT-549, less than 10%. Also, the inhibition of growth at 10 µM in the test on Hs-578T, with MDA-MB-231, in the test on DU-145, with TK-10, with SN12C and in the test with ACHN was less than 10% in each case. Further, the inhibition of growth at 10 µM in the test with SK-OV-3 was less than 10%; in the test with CCRF-CEM it was less than 10%; with KM12, less than 10%; in the test with SW-620, less than 10%; in the test on HCT-116 it was less than 10%; with NCI-H522, 13.5%. Moreover, the inhibition of growth at 10 µM in the test with NCI-H460 was less than 10%; in the test with NCI-H23, 10.4%; in the test with EKVX, 10.9%; in the test on A549 it was less than 10%; with MOLT-4, less than 10%; with K562 it was less than 10%.
Regarding `N#CCc1nc2c(c(=O)[nH]1)C(c1ccc(Cl)cc1)C1=C(CCCC1)N2` (stereo not given), the inhibition of growth at 10 µM in the test with Malme-3M is less than 10%; in the test on LOX IMVI, less than 10%; in the test on SNB-75 it was 20.4%; in the test on SK-MEL-5, less than 10%; in the test with MDA-MB-468, less than 10%; with BT-549 it was less than 10%. Besides, the inhibition of growth at 10 µM in the test with Hs-578T was less than 10%; in the test on MDA-MB-231, less than 10%; in the test with DU-145, less than 10%; with TK-10 it was less than 10%; in the test on SN12C it was 15.5%; in the test on ACHN it was 13.8%. In addition, the inhibition of growth at 10 µM was less than 10% in the test with SK-OV-3; less than 10% in the test on CCRF-CEM; less than 10% with KM12; less than 10% in the test with SW-620; less than 10% in the test with HCT-116; 11.4% in the test with NCI-H522. The inhibition of growth at 10 µM was less than 10% with NCI-H460; 12.1% with NCI-H23; 13% in the test with EKVX; less than 10% with A549; less than 10% in the test with MOLT-4; less than 10% in the test on K562.
Regarding `CN(C)c1ccc(-c2nc3c(c(=O)[nH]2)C(c2ccc(Cl)cc2)C2=C(CCCC2)N3)cc1` (stereo not given), the inhibition of growth at 10 µM in the test with Malme-3M was less than 10%; with LOX IMVI, less than 10%; in the test on SNB-75 it was 12%; in the test with SK-MEL-5 it was less than 10%; in the test with MDA-MB-468 it was less than 10%; with BT-549 it was less than 10%. Also, the inhibition of growth at 10 µM in the test with Hs-578T was less than 10%; with MDA-MB-231, 12%; with DU-145, less than 10%; in the test on TK-10, less than 10%; in the test on SN12C, 14.6%; in the test on ACHN it was 13.1%. Besides, the inhibition of growth at 10 µM with SK-OV-3 is less than 10%; in the test with CCRF-CEM, less than 10%; with KM12 it was less than 10%; in the test on SW-620, less than 10%; in the test with HCT-116, less than 10%; in the test with NCI-H522, 15.8%. Further, the inhibition of growth at 10 µM was less than 10% in the test with NCI-H460; 12.4% with NCI-H23; less than 10% in the test on EKVX; less than 10% with A549; less than 10% with MOLT-4; less than 10% in the test on K562.
With `COc1ccc(-c2nc3c(c(=O)[nH]2)C(c2ccc(Cl)cc2)C2=C(CCCC2)N3)cc1OC` (stereo not given), the inhibition of growth at 10 µM in the test with Malme-3M is less than 10%; in the test on LOX IMVI it was less than 10%; in the test with SNB-75, 11.2%; in the test with SK-MEL-5 it was 13%; in the test with MDA-MB-468, less than 10%; with BT-549, less than 10%. The inhibition of growth at 10 µM was less than 10% in the test with Hs-578T; 12.6% in the test with MDA-MB-231; less than 10% in the test on DU-145; less than 10% in the test with TK-10; 12% with SN12C; less than 10% in the test on ACHN. The inhibition of growth at 10 µM was less than 10% in the test with SK-OV-3; less than 10% in the test with CCRF-CEM; less than 10% with KM12; less than 10% in the test with SW-620; less than 10% with HCT-116; 10.1% with NCI-H522. For the same compound, the inhibition of growth at 10 µM in the test with NCI-H460, in the test with NCI-H23, in the test on EKVX, with A549, with MOLT-4 and in the test on K562 was less than 10% throughout.
As for `COc1ccc(C2C3=C(CCCC3)Nc3nc(-c4ccc(N(C)C)cc4)[nH]c(=O)c32)cc1OC` (stereo not given), the inhibition of growth at 10 µM was less than 10% in the test with Malme-3M; less than 10% in the test on LOX IMVI; less than 10% in the test with SNB-75; less than 10% in the test on SK-MEL-5; 10.8% with MDA-MB-468; less than 10% with BT-549. Also, the inhibition of growth at 10 µM in the test with Hs-578T is less than 10%; in the test on MDA-MB-231, less than 10%; in the test on DU-145, less than 10%; with TK-10, less than 10%; in the test with SN12C, 12.9%; with ACHN, less than 10%. The inhibition of growth at 10 µM in the test with SK-OV-3 is less than 10%; in the test on CCRF-CEM, less than 10%; in the test with KM12 it was less than 10%; in the test with SW-620, less than 10%; in the test on HCT-116 it was less than 10%; in the test with NCI-H522 it was 14.4%. The inhibition of growth at 10 µM with NCI-H460, in the test with NCI-H23, with EKVX, in the test on A549, with MOLT-4 and with K562 was less than 10% in each case.
